Like-named read-outs stand apart in the source and are kept apart here.
Experiments:
TNFα = TNFα release by LPS-activated BV2 microglial cells, ELISA on conditioned cell media; type: cell-based; conditions: for TNFα release / LPS-induced microglial pro-inflammatory activation: Example 1, BV2 cells, FIGS. 2, 4B, 5; for TNFα release / LPS-induced microglial pro-inflammatory activation / EC50: 1 μg/mL LPS for 5 hours; for EC50: Mus musculus, BV-2, BV2 cells, read-out: EC50 of TNFα reduction
Description: Effects of urolithin A and fisetin on the reduction of pro-inflammatory cytokines levels, such as TNFα, were assessed in an unbiased library screening. BV2 microglial cells were converted to a pro-inflammatory activation state by acute treatment with 1 μg/mL of Lipopolysaccharide (LPS) for 5 hours in the presence of a vehicle or urolithin A or fisetin. Effects on inflammation were assessed by measuring levels of a representative pro-inflammatory cytokine, TNFα, via an ELISA assay on the conditioned cell media. FIGS. 2A and 2B show representative results of the dose-response reduction of TNFα after treatment with LPS and urolithin A and fisetin, respectively.
BV2 microglial cells were next treated with 1 μg/mL of LPS for 5 hours in the presence of urolithin A and fisetin at different concentrations, alone or in combination (FIG. 5). Levels of TNFα secreted by the microglial cells into the conditioned cell media were measured using ELISA.
Effects of urolithin A, fisetin, nicotinamide riboside, cat's claw, and quercetin, alone or in combination, on TNFα concentration were assessed (FIGS. 6A-6E and 7A-7C). BV2 microglial cells were converted to a pro-inflammatory activation state by acute treatment with 1 μg/mL of Lipopolysaccharide (LPS) for 5 hours in the presence of a vehicle or nicotinamide riboside (#101), cat's claw (#134), urolithin A (#144), fisetin (NP-82) or quercetin (NP-162), alone or in combination. Effects on inflammation were assessed by measuring levels of TNF&, via an ELISA assay on the conditioned cell media.

[1] = 500 mg to 1000 mg daily; cited from earlier work
BV2 microglial cells = test: Microglial Aβ42 uptake/clearance in BV2 microglial cells, measured by Aβ ELISA; type: cell-based
Description: Urolithin A was identified as a top-tier enhancer of Aβ clearance by microglia in an unbiased (and biased) screening of natural product compounds. Cellular assay models based on BV2 microglial cells were used to assess the ability of microglia to phagocytose synthetic Aβ42 peptides, a major pathogenic Aβ isoform of Alzheimer's disease Aβ species (microglial uptake/clearance).
The ability of the agents, alone or in combination, to increase microglial Aβ uptake was also assessed (FIG. 9). […] FIGS. 11B-11D and FIGS. 12A-12F show TNFα levels in response to treatment with cat's claw (#134), urolithin A (#144), fisetin (NP-82) and quercetin (NP-162), alone or in various combinations.

EC50 (TNFα; FIG. 2B) [µM] | EC50 (TNFα; FIG. 2A) [µM] | EC50 (BV2 microglial cells; Mus musculus, BV-2, BV2 microglial cells, synthetic Aβ42 peptides, FIG. 1) [µM] | SMILES | TNFα release / LPS-induced microglial pro-inflammatory activation (TNFα) | reduction of TNFα levels (TNFα; fisetin alone, LPS-treated BV2 microglia cells, FIG. 4B) | reported safety and/or usefulness [1] | microglial Aβ uptake/clearance (BV2 microglial cells; Example 1, BV2 microglial cells, FIG. 1 and FIG. 3)
8 |  |  | O=c1c(O)c(-c2ccc(O)c(O)c2)oc2cc(O)ccc12 [fisetin, 3,3′,4′,7-tetrahydroxyflavone] | reduce TNFα release by LPS-activated microglia in a dose-dependent manner | roughly 75% |  | 
 | 21 | 12.4 | O=c1oc2cc(O)ccc2c2ccc(O)cc12 [urolithin A, 3,8-dihydroxy-6H-benzo[b,d]pyran-6-one] | reduce TNFα release by LPS-activated microglia in a dose-dependent manner |  | safe and/or useful | increases microglial Aβ uptake/clearance in a dose-dependent manner

Reference: patent US20260191821A1, “COMPOSITIONS AND METHODS FOR TREATING NEURODEGENERATIVE DISEASES” (The General Hospital Corporation, priority 2023, published 2026)
